Test results taken from the OligoGym collection.
Values joined by “and” are separate entries in the source; they are usually repeats but may differ in a detail not shown here. Equal entries are not always repeated. After the bases stand the sugars from the 5' end (letter, count) and the backbone: PS all phosphorothioate, else s phosphorothioate and o phosphodiester by linkage. Methylation of C is not given here. e = 2'-O-(2-methoxyethyl) (MOE); k = constrained ethyl (cEt); d = 2'-deoxy (DNA)

Target: IRF4
Conditions: ASO

Sequence	target mRNA inhibition (SK-MEL-28, 4 µM)	target mRNA inhibition (MM.1R, 1 µM)	further results
AGGCACCTTCGCGGCC (sugars k3 d10 k3, PS)	18%	–	–
AGGCTAATCAGAATGG (sugars k3 d10 k3, PS)	42%	–	–
AGGGATGGAACAGTAA (sugars k3 d10 k3, PS)	47%	–	–
AGGTATACTTAAGCAA (sugars k3 d10 k3, PS)	68%	–	–
AGGTCTGAGTTGTACA (sugars k3 d10 k3, PS)	–	55% and 45%	–
AGTAACTTGACTTGAG (sugars k3 d10 k3, PS)	–	-3%	–
AGTAATTTTAAGGCCC (sugars k3 d10 k3, PS)	60%	–	–
AGTACAAACTAAATTC (sugars k3 d10 k3, PS)	24%	–	–
AGTATGAGAAACGGCC (sugars k3 d9 k3 e1, PS)	–	7%	–
AGTATGAGAAACGGCC (sugars kkddddddddddkeke, PS)	–	9%	–
AGTATGAGAAACGGCC (sugars kkdddddddddkekek, PS)	–	3%	–
AGTATGAGAAACGGCC (sugars kkkdddddddddkeke, PS)	–	16%	–
AGTCATCACTCTAGTC (sugars k3 d10 k3, PS)	53%	–	–
AGTCTAGCTGGGTTTT (sugars k3 d10 k3, PS)	63%	–	–
AGTGACCACGAGGCCC (sugars k3 d10 k3, PS)	15%	–	–
AGTGACTTGCATCCAT (sugars k3 d10 k3, PS)	–	67% and 58%	target mRNA inhibition (MM.1R, 0.0625 µM): 10%; target mRNA inhibition (MM.1R, 0.25 µM): 28%; target mRNA inhibition (MM.1R, 4 µM): 78%
AGTGACTTGCATCCAT (sugars kkdddddddddekeke, PS)	–	34%	–
AGTGACTTGCATCCAT (sugars kkdddddddddkekek, PS)	–	27%	–

Sequence	target mRNA inhibition (SK-MEL-28, 4 µM)	target mRNA inhibition (MM.1R, 1 µM)	further results
AGTGAGAAAACCCCCC (sugars k3 d10 k3, PS)	–	8%	–
AGTGATGTCAGGTTTT (sugars e1 k2 d9 k2 e2, PS)	–	39%	–
AGTGATGTCAGGTTTT (sugars k3 d9 k3 e1, PS)	–	65%	target mRNA inhibition (MM.1R, 0.074 µM): 13%; target mRNA inhibition (MM.1R, 0.222 µM): 40%; target mRNA inhibition (MM.1R, 0.666 µM): 64%; target mRNA inhibition (MM.1R, 2 µM): 86%
AGTGATGTCAGGTTTT (sugars kddddddddddkekek, PS)	–	25%	–
AGTGATGTCAGGTTTT (sugars kkdddddddddkekek, PS)	–	39%	–
AGTGATGTCAGGTTTT (sugars kkkdddddddddkeke, PS)	–	59%	target mRNA inhibition (MM.1R, 0.074 µM): 15%; target mRNA inhibition (MM.1R, 0.222 µM): 36%; target mRNA inhibition (MM.1R, 0.666 µM): 55%; target mRNA inhibition (MM.1R, 2 µM): 79%
AGTGTTCCAGGAGATA (sugars k3 d10 k3, PS)	–	80% and 72%	target mRNA inhibition (MM.1R, 0.0625 µM): 43%; target mRNA inhibition (MM.1R, 0.25 µM): 59%; target mRNA inhibition (MM.1R, 4 µM): 84%
AGTTAAGTACTTGGAC (sugars k3 d10 k3, PS)	42%	–	–
AGTTCATGTAAAGTCT (sugars k2 d9 e3 k2, PS)	–	41% and 30%	–
AGTTCATGTAAAGTCT (sugars kddddddddddkekek, PS)	–	25% and 22%	–
AGTTCATGTAAAGTCT (sugars kkdddddddddkdkdk, PS)	–	32% and 47%	–
AGTTCATGTAAAGTCT (sugars kkdddddddddkekek, PS)	–	42% and 31%	–
AGTTCATTCCCTAGGT (sugars k3 d10 k3, PS)	44%	–	–
AGTTGTAAATGAGTCG (sugars e1 k2 d9 k2 e2, PS)	–	49%	–
AGTTGTAAATGAGTCG (sugars k3 d9 k3 e1, PS)	–	87%	target mRNA inhibition (MM.1R, 0.074 µM): 27%; target mRNA inhibition (MM.1R, 0.222 µM): 61%; target mRNA inhibition (MM.1R, 0.666 µM): 80%; target mRNA inhibition (MM.1R, 2 µM): 95%
AGTTGTAAATGAGTCG (sugars kkddddddddddkeke, PS)	–	59%	target mRNA inhibition (H929, 0.04 µM): 53% and 73%; target mRNA inhibition (KMS11, 0.2 µM): 83% and 91%; target mRNA inhibition (MM.1R, 0.074 µM): 28%; target mRNA inhibition (MM.1R, 0.222 µM): 44%; target mRNA inhibition (MM.1R, 0.666 µM): 65%; target mRNA inhibition (MM.1R, 2 µM): 81%
AGTTGTAAATGAGTCG (sugars kkdddddddddkekek, PS)	–	56%	target mRNA inhibition (MM.1R, 0.074 µM): 10%; target mRNA inhibition (MM.1R, 0.222 µM): 31%; target mRNA inhibition (MM.1R, 0.666 µM): 47%; target mRNA inhibition (MM.1R, 2 µM): 66%
